Results from US4839374A, “4-((Bicyclic heterocyclyl)-methyl and -hetero)-piperidines” (Janssen Pharmaceutica, N.V., priority 1987, dated 1989).
Where two headings read alike, the source gives them in different places.

Legend:
[1] = system: compound 48/80-induced lethality; experiment: Protection of rats from compound 48/80-induced lethality; assay type: in vivo, rats of an inbred Wistar strain; settings: protection of 50% of animals, survival after 4 hours; for ED50: Rattus norvegicus, 4 h, read-out: Compound 48/80 lethality test in rats ED50, s.c. or p.o. 1 h before compound 48/80 0.5 mg/kg i.v.
Summary of the method: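 Male inbred Wistar rats (240-260 g), starved overnight, dosed subcutaneously or orally with compound or 0.9% NaCl before compound 48/80 challenge. Survival at 4 hours counted as protection. ED50 in mg/kg is the dose protecting 50% of animals from lethality.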

[2] = system: effects of serotonin; experiment: Antagonistic activity on the effects of serotonin in the gastric lesion test (lesions induced by compound 48/80); assay type: in vivo, rats of a Wistar inbred strain; settings: for ED50: Rattus norvegicus, po, read-out: gastric lesion test ED50
Description: Antagonistic activity on the effects of serotonin in the gastric lesion test.
The shock, followed by dead, can be avoided if the rats are pretreated with a classical H 1 antagonist.
Male rats of a Wistar inbred strain, weighing 220-250 g, were starved overnight, water being available ad libitum. The test compounds were administered orally as a solution or as a suspension in aqueous medium. A control rat and a "blank" rat received the test compound. One hour later 5-[4-(diphenylmethyl)1-piperazinylmethyl]-1-methyl-1H-benzimidazole-2-methanol was administered subcutaneously to all rats at the dose of 2.5 mg/kg. […] Four hours after the intravenous injection of compound 48/80, the rats were decapitated and the stomachs were removed. Subsequently the stomachs were inspected for distension and contents (blood, fluid, food) and thoroughly rinsed. The macroscopic lesions were scored from 0 to +++, 0 corresponding to complete absence of visible lesions and the highest score corresponding to reddish rough patches covering more than half the glandular area.
The second column of tables 1-4 show for a number of compounds of formula (I) the doses (in mg/kg body weight) at which the distension of the stomach as well as the lesions in the glandular area of the stomach are completely absent in 50% of the test rats (ED50 -value).

[3] = compound 48/80 1 mg/kg i.v., distension and lesions of stomach completely absent in 50% of rats

SMILES	ED50 [1]	ED50 [2, 3]	ED50 [2]	Compound 48/80 lethality test in rats ED50 ([1]; s.c. or p.o. 1 h before compound 48/80 0.5 mg/kg i.v., 0.5 mg/kg, 240 min)	gastric lesion test ED50 ([2]; oral, compound 48/80 1 mg/kg i.v., distension and lesions of stomach completely absent in 50% of rats, 1 mg/kg)
Cc1nc2n(c(=O)c1CCN1CCC(Cc3nc4ccccc4n3Cc3cscn3)CC1)CCCC2 [Compound 262]	0.04 mg/kg	0.16 mg/kg	–	–	–
Fc1ccc(Cn2c(CC3CCN(CCc4cccs4)CC3)nc3ccccc32)cc1 [Compound 118, 1-[(4-fluorophenyl)methyl]-2-[[1-[2-(2-thienyl)ethyl]-4-piperidinyl]-methyl]-1H-benzimidazole]	0.04 mg/kg	0.63 mg/kg	–	–	–
Nc1nccnc1C(=O)NCCN1CCC(Cc2nc3ccccc3n2Cc2ccc(F)cc2)CC1 [Compound 436, 3-amino-N[2-[4-[[1-[(4-fluorophenyl)methyl]-1H-benzimidazol-2-yl]methyl]-1-piperidinyl]ethyl]-2-pyrazinecarboxamide]	0.01 mg/kg	0.63 mg/kg	–	–	–
S=C=NCCN1CCC(Cc2nc3ccccc3n2Cc2ccco2)CC1 [Compound 399]	0.02 mg/kg	–	0.04 mg/kg	–	–
CC(=O)N(CCN1CCC(Cc2nc3ccccc3n2Cc2ccc(F)cc2)CC1)c1ncccn1 [Compound 510, N-[2-[4-[[1-[(4-fluorophenyl)methyl]-1H-benzimidazol-2-yl]methyl]-1-piperidinyl]ethyl]-N-(2-pyrimidinyl)acetamide]	0.02 mg/kg	0.16 mg/kg	–	–	–
O=c1[nH]c2ccccc2c(=O)n1CCN1CCC(Cc2nc3ccccc3n2Cc2cccs2)CC1 [Compound 186]	0.04 mg/kg	0.31 mg/kg	–	–	–
COc1ccc(CCN2CCC(Cc3nc4cccnc4n3Cc3ccc(F)cc3)CC2)cc1 [Compound 236]	0.08 mg/kg	0.63 mg/kg	–	–	–
c1cnc(OCCN2CCC(Cc3nc4ccccc4n3Cc3ccco3)CC2)nc1 [Compound 392, 1-(2-furanylmethyl)-2-[[1-[2-(2-pyrimidinyloxy)ethyl]-4-piperidinyl]methyl]-1H-benzimidazole]	0.02 mg/kg	0.63 mg/kg	–	–	–
Fc1ccc(Cn2c(CC3CCNCC3)nc3ccccc32)cc1 [Compound 47, 1-[(4-fluorophenyl)methyl]-2-(4-piperidinylmethyl)-1H-benzimidazole]	0.08 mg/kg	0.63 mg/kg	–	–	–
c1csc(Cn2c(CC3CCN(CCNc4nc5cnccc5[nH]4)CC3)nc3ccccc32)c1 [Compound 416, N-[2-[4-[[1-(2-thienylmethyl)-1H-benzimidazol-2-yl]methyl]-1-piperidinyl]ethyl]-1H-imidazo[4,5-c]pyridin-2-amine]	0.04 mg/kg	–	0.04 mg/kg	–	–
CCNC(=O)NCCN1CCC(Cc2nc3ccccc3n2Cc2ccc(F)cc2)CC1 [Compound 430, N-ethyl-N'-[2-[4-[[1-[(4-fluorophenyl)methyl]-1H-benzimidazol-2-yl]methyl]-1-piperidinyl]ethyl]urea]	0.01 mg/kg	0.005 mg/kg	–	–	–
CNc1ccccc1C(=O)NCCN1CCC(Cc2nc3ccccc3n2Cc2ccc(F)cc2)CC1 [Compound 467, N-[2-[4-[[1-[(4-fluorophenyl)methyl]-1H-benzimidazol-2-yl]methyl]-1-piperidinyl]ethyl]-2-(methylamino)benzamide]	0.04 mg/kg	–	0.08 mg/kg	–	–
Fc1ccc(Cn2c(CC3CCN(Cc4cn5ccccc5n4)CC3)nc3ccccc32)cc1 [Compound 184]	0.02 mg/kg	0.63 mg/kg	–	–	–
Cc1nc2ccccn2c(=O)c1CCN1CCC(Cc2nc3cccnc3n2Cc2ccc(F)cc2)CC1 [Compound 177]	0.04 mg/kg	0.31 mg/kg	–	–	–
Fc1ccc(Cn2c(CC3CCN(CCc4ccccn4)CC3)nc3ccccc32)cc1 [Compound 103, 1-[(4-fluorophenyl)methyl]-2-[[1-[2-(2-pyridinyl)ethyl]-4-piperidinyl]-methyl]-1H-benzimidazole]	0.005 mg/kg	0.16 mg/kg	–	–	–
CC(C)NC(=O)CN1CCC(Cc2nc3cccnc3n2Cc2ccc(F)cc2)CC1 [Compound 128]	0.16 mg/kg	0.63 mg/kg	–	–	–
Cc1nc2ccccn2c(=O)c1CCN1CCC(Cc2nc3ccccc3n2Cc2ccco2)CC1 [Compound 218]	0.04 mg/kg	–	0.04 mg/kg	–	–
S=C=NCCN1CCC(Cc2nc3ccccc3n2Cc2cccs2)CC1 [Compound 397]	0.04 mg/kg	–	0.04 mg/kg	–	–
Cc1nc2n(c(=O)c1CCN1CCC(Cc3nc4ccccc4n3Cc3ccc(F)cc3)CC1)CCCC2 [Compound 498, 3-[2-[4-[[1-[(4-fluorophenyl)methyl]-1H-benzimidazol-2-yl]methyl]-1-piperidinyl]ethyl]-6,7,8,9-tetrahydro-2-methyl-4H-pyrido[1,2-a]pyrimidin-4-one]	0.08 mg/kg	0.16 mg/kg	–	–	–

SMILES	ED50 [1]	ED50 [2, 3]	ED50 [2]	Compound 48/80 lethality test in rats ED50 ([1]; s.c. or p.o. 1 h before compound 48/80 0.5 mg/kg i.v., 0.5 mg/kg, 240 min)	gastric lesion test ED50 ([2]; oral, compound 48/80 1 mg/kg i.v., distension and lesions of stomach completely absent in 50% of rats, 1 mg/kg)
c1coc(Cn2c(CC3CCN(CCNc4nc5cnccc5[nH]4)CC3)nc3ccccc32)c1 [Compound 418, N-[2-[4-[[1-(2-furanylmethyl)-1H-benzimidazol-2-yl]methyl]-1-piperidinyl]ethyl]-1H-imidazo[4,5-c]pyridin-2-amine]	0.02 mg/kg	–	0.04 mg/kg	–	–
c1cnc(NCCN2CCC(Cc3nc4ccccc4n3Cc3ccco3)CC2)nc1 [Compound 334]	0.005 mg/kg	0.31 mg/kg	–	–	–
O=c1[nH]c2ccccc2c(=O)n1CCN1CCC(Cc2nc3ccccc3n2Cc2ccco2)CC1 [Compound 208]	0.04 mg/kg	–	0.08 mg/kg	–	–
Cc1nc2c(NCCN3CCC(Cc4nc5ccccc5n4Cc4ccc(F)cc4)CC3)ncnc2n1C [Compound 372]	0.04 mg/kg	0.16 mg/kg	–	–	–
Fc1ccc(Cn2c(CC3CCN(CCNc4ncccn4)CC3)nc3cccnc32)cc1 [Compound 376, N-[2-[4-[[3-[(4-fluorophenyl)methyl]-3H-imidazo[4,5-b]pyridin-2-yl]methyl]-1-piperidinyl]ethyl]-2-pyrimidinamine]	0.02 mg/kg	0.63 mg/kg	–	–	–
CC(C)NC(=O)CCN1CCC(Cc2nc3ccccc3n2Cc2ccc(F)cc2)CC1 [Compound 145, 4-[[1-[(4-fluorophenyl)methyl]-1H-benzimidazol-2-yl]methyl]-N-(1-methylethyl)-1-piperidinepropanamide]	0.02 mg/kg	0.16 mg/kg	–	–	–
OCCN1CCC(Cc2nc3ccccc3n2Cc2ccc(F)cc2)CC1 [Compound 107, 4-[[1-[(4-fluorophenyl)methyl]-1H-benzimidazol-2-yl]methyl]-1-piperidineethanol]	0.04 mg/kg	–	0.08 mg/kg	–	–
COc1ccc(CCN2CCC(Cc3nc4cccnc4n3Cc3ccccc3)CC2)cc1 [Compound 198]	0.04 mg/kg	–	0.08 mg/kg	–	–
Fc1ccc(Cn2c(CC3CCN(CCNc4ccccn4)CC3)nc3ccccc32)cc1 [Compound 499]	0.04 mg/kg	0.01 mg/kg	–	–	–
O=[N+]([O-])c1cc[n+]([O-])cc1NCCN1CCC(Cc2nc3ccccc3n2Cc2ccc(F)cc2)CC1 [Compound 379, N-[2-[4-[[1-[(4-fluorophenyl)methyl]-1H-benzimidazol-2-yl]methyl]-1-piperidinyl]ethyl]-4-nitro-3-pyridinamine, 1-oxide]	0.08 mg/kg	0.31 mg/kg	–	–	–
Nc1ccccc1C(=O)NCCN1CCC(Cc2nc3ccncc3n2Cc2ccc(F)cc2)CC1 [Compound 477, 2-amino-N-[2-[4-[[3-[(4-fluorophenyl)methyl]-3H-imidazo[4,5-c]pyridin-2-yl]-methyl]-1-piperidinyl]-ethyl]benzamide]	0.02 mg/kg	0.63 mg/kg	–	–	–
c1ccc(Cn2c(CC3CCN(CCNc4nc5cnccc5[nH]4)CC3)nc3ccccc32)cc1 [Compound 422, N-[2-[4-[[1-(phenylmethyl)-1H-benzimidazol-2-yl]methyl]-1-piperidinyl]ethyl]-1H-imidazo[4,5-c]pyridin-2-amine]	0.04 mg/kg	–	0.04 mg/kg	–	–
CN1CCC(Cc2nc3cccnc3n2Cc2ccc(F)cc2)CC1 [Compound 90]	0.01 mg/kg	0.31 mg/kg	–	–	–
Fc1ccc(Cn2c(CC3CCN(Cc4ccccc4)CC3)nc3ccccc32)cc1 [Compound 34, 1-[(4-fluorophenyl)methyl]-2-[[1-(phenylmethyl)-4-piperidinyl]methyl]-1H-benzimidazole]	0.04 mg/kg	0.63 mg/kg	–	–	–
O=c1cc[nH]c(=O)n1CCN1CCC(Cc2nc3ccccc3n2Cc2ccc(F)cc2)CC1 [Compound 164]	0.02 mg/kg	0.02 mg/kg	–	–	–
O=C(CCCN1CCC(Cc2nc3cccnc3n2Cc2ccc(F)cc2)CC1)c1ccc(F)cc1 [Compound 228]	–	–	–	0.04 mg/kg body weight	0.01 mg/kg body weight
COc1ccc(CCN2CCC(Cc3nc4ccccc4n3Cc3ccoc3)CC2)cc1 [Compound 260]	0.01 mg/kg	0.63 mg/kg	–	–	–
Cc1cc(NCCN2CCC(Cc3nc4ccccc4n3Cc3ccc(F)cc3)CC2)nc(Cl)n1 [Compound 383, 2-chloro-N-[2-[4-[[1-[(4-fluorophenyl)methyl]-1H-benzimidazol-2-yl]methyl]-1-piperidinyl]ethyl]-6-methyl-4-pyrimidinamine]	0.04 mg/kg	0.16 mg/kg	–	–	–
